The target of one experiment is T1, NBD1 (Homo sapiens, UniProt P13569).
T1 construct: Purified recombinant NBD1 was produced using previously described methods; made in house
Kind of experiment: Aggregation analysis using differential static light scattering (DSLS), thermal stability of NBD1 (ΔTagg). It counts as binding. Particulars: ΔTagg versus DMSO control, NBD1 0.2 mg/ml. The method in brief:
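Purified recombinant NBD1 at 0.2 mg/ml in Tris buffer pH7.6 with 2 mM ATP, 5 mM MgCl2, 2 mM DTT and 1% glycerol was mixed with DMSO-dissolved compounds under mineral oil. Plates were heated at 1° C. per minute to 70° C., light scattering imaged every 0.5° C.; Tagg from curve inflection, minus DMSO-control mean.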

A further experiment addresses T2, CFTR (Homo sapiens, UniProt P13569, DEL508-508).
T2 construct: Primary human bronchial epithelial cells from a ΔF508 homozygous CF donor; host or cells: primary human bronchial epithelial cells (CF-HBE), ΔF508 homozygous donor
Kind of experiment: TECC24 AUC fold over DMSO @10 μM, CFTR-mediated transepithelial chloride transport in CF-HBE cells. It counts as cell-based. Particulars: test agent AUC divided by DMSO vehicle AUC, primary CF-HBE cells, ΔF508 homozygous donor, 48 hours incubation. The method in brief:
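Value is ratio of test-agent to DMSO AUC of equivalent transepithelial Cl− current, integrated from forskolin (10 μM) stimulation to CFTR inhibitor-172 (20 μM) block, with benzamil 10 μM present. CF-HBE (ΔF508/ΔF508) cultures had 48 h compound exposure at 10 μM, 36.5° C before recording.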

The values that follow come from US12649750B2, “Macrocyclic compounds, compositions, and methods of using thereof” (Sionna Therapeutics Inc., priority 2022, dated 2026).

T2 sequence (P13569 with tags, fused parts or gaps DEL508-508): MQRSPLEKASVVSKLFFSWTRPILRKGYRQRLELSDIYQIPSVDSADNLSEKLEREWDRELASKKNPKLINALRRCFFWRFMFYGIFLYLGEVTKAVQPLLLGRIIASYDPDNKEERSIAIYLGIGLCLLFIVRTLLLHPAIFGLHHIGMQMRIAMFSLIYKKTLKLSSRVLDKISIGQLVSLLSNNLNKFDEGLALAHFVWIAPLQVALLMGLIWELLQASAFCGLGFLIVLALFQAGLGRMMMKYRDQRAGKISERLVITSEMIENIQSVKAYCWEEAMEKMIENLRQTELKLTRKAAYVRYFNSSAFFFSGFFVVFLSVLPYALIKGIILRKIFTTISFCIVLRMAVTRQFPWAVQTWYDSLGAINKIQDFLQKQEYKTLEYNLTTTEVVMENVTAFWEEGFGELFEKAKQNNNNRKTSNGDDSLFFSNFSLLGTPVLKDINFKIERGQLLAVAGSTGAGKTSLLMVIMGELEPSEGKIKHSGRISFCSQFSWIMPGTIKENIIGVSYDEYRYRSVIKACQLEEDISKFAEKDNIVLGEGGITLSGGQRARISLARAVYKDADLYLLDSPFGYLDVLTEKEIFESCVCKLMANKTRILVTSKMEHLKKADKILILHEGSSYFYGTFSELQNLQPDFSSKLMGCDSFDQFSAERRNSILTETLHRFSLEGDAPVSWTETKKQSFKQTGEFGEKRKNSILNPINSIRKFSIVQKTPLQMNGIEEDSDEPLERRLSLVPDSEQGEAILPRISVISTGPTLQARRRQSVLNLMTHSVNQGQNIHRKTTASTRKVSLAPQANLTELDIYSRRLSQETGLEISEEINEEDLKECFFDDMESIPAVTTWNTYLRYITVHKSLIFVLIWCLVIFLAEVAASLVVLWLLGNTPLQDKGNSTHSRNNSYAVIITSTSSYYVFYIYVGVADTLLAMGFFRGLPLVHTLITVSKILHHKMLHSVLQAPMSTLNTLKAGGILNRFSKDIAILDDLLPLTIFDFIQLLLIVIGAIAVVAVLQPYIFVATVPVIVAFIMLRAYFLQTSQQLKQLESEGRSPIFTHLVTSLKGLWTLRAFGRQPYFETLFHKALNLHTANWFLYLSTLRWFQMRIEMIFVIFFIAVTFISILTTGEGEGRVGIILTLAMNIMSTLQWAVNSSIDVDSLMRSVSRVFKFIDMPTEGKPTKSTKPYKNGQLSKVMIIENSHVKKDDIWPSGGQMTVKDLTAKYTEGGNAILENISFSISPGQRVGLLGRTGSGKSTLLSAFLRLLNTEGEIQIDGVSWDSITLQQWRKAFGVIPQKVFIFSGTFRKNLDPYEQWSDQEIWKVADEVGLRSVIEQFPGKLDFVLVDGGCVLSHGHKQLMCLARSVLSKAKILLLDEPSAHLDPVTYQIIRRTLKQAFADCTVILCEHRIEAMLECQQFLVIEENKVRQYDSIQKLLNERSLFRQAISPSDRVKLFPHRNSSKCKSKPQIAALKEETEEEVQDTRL
T1 sequence (P13569 423-646 limits assumed): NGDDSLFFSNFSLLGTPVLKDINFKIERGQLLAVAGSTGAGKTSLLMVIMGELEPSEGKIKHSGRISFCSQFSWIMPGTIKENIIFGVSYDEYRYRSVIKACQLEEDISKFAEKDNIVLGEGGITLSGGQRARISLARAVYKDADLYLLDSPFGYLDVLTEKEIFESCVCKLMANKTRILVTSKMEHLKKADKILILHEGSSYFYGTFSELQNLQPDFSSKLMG

With `C[C@@H](Cc1cccc([C@@]2(C)CCCC(C)(C)CS(=O)(=O)CCc3c(c(F)cc4[nH]ccc34)[S+]([O-])c3ccnc(c3)-c3nc2nn3C)c1)C(=O)O` (single isomer, unassigned) [Compound 222A], the “DSLS 3D (100 μM ΔT)” value at NBD1 is “B (a value above 5 °C and less than or equal to 10 °C is marked “B”)”. In addition, the “TECC (AUC, 10 μM)” value at CFTR is “C (a value between 20 and 80 is marked “C”)”.
`C[C@@H](Cc1cccc([C@@]2(C)CCCC(C)(C)CS(=O)(=O)CCc3c(c(F)cc4[nH]ccc34)[S+]([O-])c3ccnc(c3)-c3nc2nn3C)c1)C(=O)O` (single isomer, unassigned) [Compound 222B]: the “DSLS 3D (100 μM ΔT)” value on NBD1 was “C (a value greater than 10 °C and less than or equal to 25 °C is marked “C”)”. On CFTR, the “TECC (AUC, 10 μM)” value is “C (a value between 20 and 80 is marked “C”)”.
As to `Cn1nc2nc1-c1cc(ccc1F)[S+]([O-])c1c(F)cc3[nH]ccc3c1CCS(=O)(=O)CC(C)(C)CCC[C@]2(C)c1ccccc1` (single isomer, unassigned) [Compound 223A], the “DSLS 3D (100 μM ΔT)” value at NBD1 is “A (an ΔTagg value less than or equal to 5 °C is marked “A”)”. In addition, the “TECC (AUC, 10 μM)” value at CFTR is recorded as “A (a TECC value less than 12 is marked “A”)”.
Regarding `Cn1nc2nc1-c1cc(ccc1F)[S+]([O-])c1c(F)cc3[nH]ccc3c1CCS(=O)(=O)CC(C)(C)CCC[C@]2(C)c1ccccc1` (single isomer, unassigned) [Compound 223B], on NBD1, the “DSLS 3D (100 μM ΔT)” value is “C (a value greater than 10 °C and less than or equal to 25 °C is marked “C”)”. Further, the “TECC (AUC, 10 μM)” value at CFTR was “C (a value between 20 and 80 is marked “C”)”.
On to `Cn1nc2nc1-c1cc(ccn1)[S+]([O-])c1c(F)cc3[nH]ccc3c1CCS(=O)(=O)CC(C)(C)CCC[C@]2(C)c1cccc(CCC(=O)O)c1` (single isomer, unassigned) [Compound 224], for which the “DSLS 3D (100 μM ΔT)” value on NBD1 is “C (a value greater than 10 °C and less than or equal to 25 °C is marked “C”)”. The “TECC (AUC, 10 μM)” value at CFTR was “C (a value between 20 and 80 is marked “C”)”.
As for `C[C@@H](Cc1cccc([C@@]2(C)CCCC(C)(C)CS(=O)(=O)CCc3c(c(F)c(F)c4[nH]ccc34)[S+]([O-])c3ccc(F)c(c3)-c3nc2nn3C)c1)C(=O)O` (single isomer, unassigned) [Compound 225A], the “DSLS 3D (100 μM ΔT)” value on NBD1 is “B (a value above 5 °C and less than or equal to 10 °C is marked “B”)”. In addition, the “TECC (AUC, 10 μM)” value at CFTR is “C (a value between 20 and 80 is marked “C”)”.
Regarding `C[C@@H](Cc1cccc([C@@]2(C)CCCC(C)(C)CS(=O)(=O)CCc3c(c(F)c(F)c4[nH]ccc34)[S+]([O-])c3ccc(F)c(c3)-c3nc2nn3C)c1)C(=O)O` (single isomer, unassigned) [Compound 225B], the “DSLS 3D (100 μM ΔT)” value on NBD1 was “C (a value greater than 10 °C and less than or equal to 25 °C is marked “C”)”. Also, the “TECC (AUC, 10 μM)” value at CFTR was “C (a value between 20 and 80 is marked “C”)”.
In the case of `Cn1nc2nc1-c1cc(ccc1F)[S+]([O-])c1c(F)cc3[nH]ccc3c1CCS(=O)(=O)CC(C)(C)CCC[C@]2(C)c1cccc(C[C@@H](O)CO)c1` (single isomer, unassigned) [Compound 235A], the “DSLS 3D (100 μM ΔT)” value on NBD1 was “B (a value above 5 °C and less than or equal to 10 °C is marked “B”)”. Further, the “TECC (AUC, 10 μM)” value on CFTR is reported as “B (a value between 12-20 is marked “B”)”.
For the compound `Cn1nc2nc1-c1cc(ccc1F)[S+]([O-])c1c(F)cc3[nH]ccc3c1CCS(=O)(=O)CC(C)(C)CCC[C@]2(C)c1cccc(C[C@@H](O)CO)c1` (single isomer, unassigned) [Compound 235B], the “DSLS 3D (100 μM ΔT)” value on NBD1 was “C (a value greater than 10 °C and less than or equal to 25 °C is marked “C”)”. For the same compound, the “TECC (AUC, 10 μM)” value on CFTR is “C (a value between 20 and 80 is marked “C”)”.
Take `Cn1nc2nc1-c1cc(ccc1F)[S+]([O-])c1c(F)cc3[nH]ccc3c1CCS(=O)(=O)CC(C)(C)CCC[C@]2(C)c1cccc([C@@H](O)CO)c1` (single isomer, unassigned) [Compound 236A]: the “DSLS 3D (100 μM ΔT)” value on NBD1 is “B (a value above 5 °C and less than or equal to 10 °C is marked “B”)”. The “TECC (AUC, 10 μM)” value at CFTR is given as “A (a TECC value less than 12 is marked “A”)”.
Regarding `Cn1nc2nc1-c1cc(ccc1F)[S+]([O-])c1c(F)cc3[nH]ccc3c1CCS(=O)(=O)CC(C)(C)CCC[C@]2(C)c1cccc([C@@H](O)CO)c1` (single isomer, unassigned) [Compound 236B], on NBD1, the “DSLS 3D (100 μM ΔT)” value was “C (a value greater than 10 °C and less than or equal to 25 °C is marked “C”)”. Further, the “TECC (AUC, 10 μM)” value on CFTR is “C (a value between 20 and 80 is marked “C”)”.
Regarding `C[C@H](O)Cc1cccc([C@@]2(C)CCCC(C)(C)CS(=O)(=O)CCc3c(c(F)cc4[nH]ccc34)[S+]([O-])c3ccc(F)c(c3)-c3nc2nn3C)c1` (single isomer, unassigned) [Compound 237A], the “DSLS 3D (100 μM ΔT)” value on NBD1 is “A (an ΔTagg value less than or equal to 5 °C is marked “A”)”. The “TECC (AUC, 10 μM)” value at CFTR is “C (a value between 20 and 80 is marked “C”)”.
As for `C[C@H](O)Cc1cccc([C@@]2(C)CCCC(C)(C)CS(=O)(=O)CCc3c(c(F)cc4[nH]ccc34)[S+]([O-])c3ccc(F)c(c3)-c3nc2nn3C)c1` (single isomer, unassigned) [Compound 237B], on NBD1, the “DSLS 3D (100 μM ΔT)” value was “C (a value greater than 10 °C and less than or equal to 25 °C is marked “C”)”. Besides, the “TECC (AUC, 10 μM)” value at CFTR is “C (a value between 20 and 80 is marked “C”)”.
Take `C[C@@H](Cc1cccc([C@@]2(C)CCCC(C)(C)CS(=O)(=O)CCc3c(c(F)cc4[nH]ccc34)[S+]([O-])c3ccnc(c3)-c3nc2cs3)c1)C(=O)O` (single isomer, unassigned) [Compound 239A]: the “DSLS 3D (100 μM ΔT)” value on NBD1 is “A (an ΔTagg value less than or equal to 5 °C is marked “A”)”. Further, the “TECC (AUC, 10 μM)” value at CFTR is “B (a value between 12-20 is marked “B”)”.
For `C[C@@H](Cc1cccc([C@@]2(C)CCCC(C)(C)CS(=O)(=O)CCc3c(c(F)cc4[nH]ccc34)[S+]([O-])c3ccnc(c3)-c3nc2cs3)c1)C(=O)O` (single isomer, unassigned) [Compound 239B] the same measures were “A (an ΔTagg value less than or equal to 5 °C is marked “A”)” and “A (a TECC value less than 12 is marked “A”)”.
Consider `C[C@@H](Cc1cccc([C@@]2(C)CCCC(C)(C)CS(=O)(=O)CCc3c(c(F)cc4[nH]ccc34)[S+]([O-])c3ccc(F)c(c3)-c3nc2cs3)c1)C(=O)O` (single isomer, unassigned) [Compound 241A], for which the “DSLS 3D (100 μM ΔT)” value on NBD1 is “A (an ΔTagg value less than or equal to 5 °C is marked “A”)”. Besides, the “TECC (AUC, 10 μM)” value on CFTR is “C (a value between 20 and 80 is marked “C”)”.
With `C[C@@H](Cc1cccc([C@@]2(C)CCCC(C)(C)CS(=O)(=O)CCc3c(c(F)cc4[nH]ccc34)[S+]([O-])c3ccc(F)c(c3)-c3nc2cs3)c1)C(=O)O` (single isomer, unassigned) [Compound 241B], the “DSLS 3D (100 μM ΔT)” value on NBD1 is “A (an ΔTagg value less than or equal to 5 °C is marked “A”)”. Also, the “TECC (AUC, 10 μM)” value on CFTR was “A (a TECC value less than 12 is marked “A”)”.
In the case of `Cn1nc2nc1-c1cc(ccn1)[S+]([O-])c1c(F)cc3[nH]ccc3c1CCS(=O)(=O)CC(C)(C)CCC[C@]2(C)c1cccc(CCS(C)(=O)=O)c1` (single isomer, unassigned) [Compound 243A], the “DSLS 3D (100 μM ΔT)” value on NBD1 is “B (a value above 5 °C and less than or equal to 10 °C is marked “B”)”. Also, the “TECC (AUC, 10 μM)” value on CFTR was “C (a value between 20 and 80 is marked “C”)”.
With `Cn1nc2nc1-c1cc(ccn1)[S+]([O-])c1c(F)cc3[nH]ccc3c1CCS(=O)(=O)CC(C)(C)CCC[C@]2(C)c1cccc(CCS(C)(=O)=O)c1` (single isomer, unassigned) [Compound 243B], the “DSLS 3D (100 μM ΔT)” value on NBD1 was “C (a value greater than 10 °C and less than or equal to 25 °C is marked “C”)”. Further, the “TECC (AUC, 10 μM)” value at CFTR is “C (a value between 20 and 80 is marked “C”)”.
For the compound `C[C@H](Cc1ccc(C2(C)CCCC(C)(C)CS(=O)(=O)CCc3c(c(F)cc4[nH]ccc34)Oc3ccnc(c3)-c3nc2nn3C)s1)C(=O)O` (single isomer, unassigned) [Compound 246A], the “DSLS 3D (100 μM ΔT)” value on NBD1 was “C (a value greater than 10 °C and less than or equal to 25 °C is marked “C”)”. Moreover, on CFTR, the “TECC (AUC, 10 μM)” value is “B (a value between 12-20 is marked “B”)”.
Consider `C[C@H](Cc1ccc(C2(C)CCCC(C)(C)CS(=O)(=O)CCc3c(c(F)cc4[nH]ccc34)Oc3ccnc(c3)-c3nc2nn3C)s1)C(=O)O` (single isomer, unassigned) [Compound 246B], for which, at NBD1, the “DSLS 3D (100 μM ΔT)” value is “A (an ΔTagg value less than or equal to 5 °C is marked “A”)”. Also, the “TECC (AUC, 10 μM)” value at CFTR is recorded as “B (a value between 12-20 is marked “B”)”.
With `C[C@@H](Cc1cccc([C@@]2(C)CCCC(C)(C)CS(=O)(=O)CCc3c(c(F)cc4[nH]ccc34)[S+]([O-])c3ccc(F)c(c3)-c3nc2co3)c1)C(=O)O` (single isomer, unassigned) [Compound 248A], the “DSLS 3D (100 μM ΔT)” value at NBD1 is “C (a value greater than 10 °C and less than or equal to 25 °C is marked “C”)”. Besides, the “TECC (AUC, 10 μM)” value at CFTR was “C (a value between 20 and 80 is marked “C”)”.
As to `C[C@@H](Cc1cccc([C@@]2(C)CCCC(C)(C)CS(=O)(=O)CCc3c(c(F)cc4[nH]ccc34)[S+]([O-])c3ccc(F)c(c3)-c3nc2co3)c1)C(=O)O` (single isomer, unassigned) [Compound 248B], the “DSLS 3D (100 μM ΔT)” value at NBD1 was “C (a value greater than 10 °C and less than or equal to 25 °C is marked “C”)”. Besides, on CFTR, the “TECC (AUC, 10 μM)” value is “A (a TECC value less than 12 is marked “A”)”.
